Here are results for 92 molecules from a melting point compilation (Tetko et al.; mined from patent text by program, amines drawn as free bases though some values may be those of a salt).

Each structure is given as a SMILES string.

On to `Cc1cc([N+](=O)[O-])ccc1C(=O)Nc1ccc2ccc(Cl)nc2n1`, for which the melting point (in general, the temperature of the solid-liquid transition) amounted to 229 °C. As to `CCCc1nc(SC2CCC(=CC(=O)O)CC2)c(C(=O)O)n1Cc1cc2c(cc1Cl)OCO2` (configuration not stated), the melting point amounted to 168 °C. As for `CCOC(=O)c1cc(O)c(C(=O)c2ccccc2)c([N+](=O)[O-])c1`, the melting point was 167 to 168 °C.

`COC(=O)c1cnc(Cl)c(OC)c1` showed a melting point of 83 to 85 °C. The same measure for `O=C(Cc1noc2ccccc12)NS(=O)(=O)C1CC1`: 147 to 148 °C; for `CC1(C)CC(S(=O)(=O)Cc2cc3c(cc2Cl)OCO3)=NO1`: 170 °C.

`O=C(O)CN(CC(=O)O)C(=O)OCC1c2ccccc2-c2ccccc21` gave a melting point of 213 to 216 °C.

`COc1ccc(-c2cccc(O)c2)cc1` registered a melting point of 76.5 to 78 °C. The same measure for `Nc1nc(-c2cc(-c3c(F)cccc3Cl)no2)cs1`: 168 to 169 °C; for `CCOC(=O)CCNC(=O)c1n[nH]cc1NC(=O)c1cccc(C)n1`: 228 to 229 °C.

As for `O=S(=O)(Cc1ccc(Cl)cc1)Cc1ccc(Cl)cc1`, the melting point is 94 to 95 °C.

`NC1(c2ccccc2)C(=O)Nc2ccc(Cl)cc21` (configuration not stated) showed a melting point of 230 to 235 °C.

With `Cc1nc2c3c(ccn2c1C)C(O)CC(c1ccccc1)N3` (configuration not stated), the melting point lay within 210 to 212 °C. In turn, `CN(C)CCOc1cc(-c2ccccc2)nn1N` returned a melting point of 80 °C. The result for `C=CCSc1ccc(-c2nc3cnncc3[nH]2)c(OC)c1` reads 240 °C; that for `CC(C)(Oc1ccc([Si](C)(C)C)cc1)C(=O)O`, 92 to 93 °C; that for `O=c1nc(-c2ccccn2)sc2ccc(F)cc12`, 240 °C. The same measure for `Cc1c(NC(=O)CC(C)(C)C)c(C)c2c(c1-c1ccc(N(C)C)cc1)OCC2c1ccc(C(C)C)cc1` (configuration not stated): 180 to 181 °C; for `CCN1c2ncc(CCc3ccncc3)cc2C(=O)N(C)c2ccc(F)nc21`: 109 to 111 °C; for `CS(=O)(=O)c1ccc(-c2cc(C(=O)CCCO[N+](=O)[O-])nn2-c2ccc(C(F)(F)F)cc2)cc1`: 152 to 154 °C. The same measure for `OCCCSCCSCCCO`: 52 °C.

In turn, `CC(C)c1ccc([N+](=O)[O-])c(C(C)C)c1NC(=O)CN1CCN(CCSc2nc3cccc(C(F)(F)F)c3o2)CC1` gave a melting point of 115 to 117 °C. The result for `COCC1C(=O)C(C)(C)C(=O)N1c1ccc(C#N)c(Cl)c1` (configuration not stated) reads 98 to 99 °C; that for `O=C1CCC(=O)N1Cc1cccc(Nc2n[nH]c3ncnc(Nc4cccc(Cl)c4)c23)c1`, 140 to 142 °C. The same measure for `COc1ccc2[nH]cc(CCNC=O)c2c1Cl`: 120 to 121 °C; for `CCOC(=O)n1c(C(=O)c2ccccc2)c(N)c2c(Cl)cccc21`: 118 to 119 °C; for `CC(=O)Nc1cccc2c1C(=O)c1c-2n[nH]c1-c1ccncc1`: > 300 °C. `CCOC(=O)C1C(=O)c2ccccc2OC1C(F)(F)F` (configuration not stated): the melting point was in the range of 80.2 to 84.9 °C.

For `CCCCCCCCCCOc1ccc(CC(=O)OC)cc1`, the melting point fell in the range of 42 to 44 °C.

Consider `Cn1cccc1C(=O)c1ccc2ccccc2c1`, for which the melting point is 108 to 110 °C. The result for `O=C(Nc1ccc(C(=O)N2Cc3cccn3Cc3ccccc32)cc1)c1ccccc1F` reads 257 to 260 °C. The result for `CCOc1ccc2nc(Cl)c(C=O)cc2c1` reads 163 to 164 °C; that for `O=C(O)Cc1cccc(Oc2ccccc2)c1O`, 132 to 135 °C.

Turning to `CCCCNC(=O)[C@@H](C[C@H](O)[C@H](CC1CCCCC1)NC(=O)[C@H](Cc1cscn1)NC(=O)OC(C)(C)C)C(C)C`, the melting point lay within 201 to 203 °C. The same measure for `CCC(=O)NCCC1CCc2ccn3nccc3c21` (configuration not stated): 72 to 73 °C; for `c1c2c(cc3c1OCO3)CN(CN1CCc3cc4c(cc3C1)OCO4)CC2`: 116 °C. The same measure for `CC(CNS(=O)(=O)C(C)C)c1ccc(NC(=O)CCl)cc1` (configuration not stated): 138 °C; for `CC(=O)Oc1c(C)c2c(c(C)c1OC(C)=O)SC(C)O2` (configuration not stated): 82 to 84 °C; for `CN1CCC(c2ccc(-c3ccccc3)cc2)(C(C)(C)O)CC1`: 192 to 193 °C. The same measure for `CCCCc1ccc(-c2ccc(CCc3ccc(Cl)cc3)cc2)cc1`: 129 °C; for `CCOC(=O)Nc1cc(OC(C)C)c(Cl)cc1F`: 89 to 91 °C.

The molecule `Cc1csc(C2(c3cccs3)CCCO2)n1` (configuration not stated) came in with a melting point of 59 to 60 °C. The same measure for `NC(=O)c1c(Cl)cc(Cl)c(CC(=O)O)c1Cl`: 211 °C. In turn, `O=C1CCC(N2C(=O)c3cccc(OCc4nc(CN5CCOCC5)cs4)c3C2=O)C(=O)N1` (configuration not stated) yielded a melting point of 210 to 212 °C. `O=C(c1ccc(SC2SCC(O)C(O)C2O)cc1)C(F)(F)F` (configuration not stated) had a melting point of 133 to 134 °C.

Turning to `O=C(O)c1cn(C2CC2)c2c(F)c(N3CCN(O)CC3)c(F)cc2c1=O`, the melting point was 223 to 227 °C.

`CN(C)C=C(C#N)C(=O)c1ccco1` displayed a melting point of 117 to 125 °C. The same measure for `CNc1ncnc2c1c(-c1ccc([N+](=O)[O-])o1)nn2C`: 280 °C; for `O=C1c2ccccc2C(=O)N1CCCCOc1ccc(-n2cnnn2)cc1`: 143 to 145 °C. `COc1cccc(C(O)(Cc2ccncc2)c2cccc(OC)c2)c1` gave a melting point of 134 to 135 °C. The result for `COc1cc(Nc2c(C#N)cnc3cc(/C=C/CCN4CCCCC4)c(OC)cc23)c(Cl)cc1Cl` reads 140 to 142 °C; that for `O=C(NCCSCc1ccccc1)c1ccccc1`, 65 to 67 °C; that for `CC(C)(CF)C(=O)Cn1cncn1`, 59 °C. In the case of `Nc1cc(C2CC2)nn1C(=O)Nc1ccccc1`, the melting point fell in the range of 97 to 99 °C. `COc1cc(OC)cc(-c2cc(=O)c3ccc(OCC(O)CNC(C)(C)C)cc3o2)c1` (configuration not stated) gave a melting point of 145 to 146 °C. The result for `COC(=O)CCC(=O)c1ccc(-c2ccc(OC)cc2)cc1` reads 96 to 100 °C; that for `COc1ccc(-c2nc(-c3cccnc3)c(C)n2C)c(OC)c1`, 129 to 131 °C. The same measure for `Cc1ccc2c(OCCCl)c3ccccc3c(OCCCl)c2c1`: 82 to 85 °C; for `CCOC(=O)c1ccc(N2CCOCC2)cc1`: 82 to 83 °C; for `CCCCCCC(C(C)O)n1cnc(C#N)c1N` (configuration not stated): 110 to 111 °C.

`Nc1ccc(OCc2ccc(Cl)cc2)cc1F` gave a melting point of 73 to 75 °C. The result for `CCOC(=O)c1ncn2c1CN=C(c1ccccc1Cl)c1cc([N+](=O)[O-])ccc1-2` reads 250 to 252 °C; that for `CC1=C(C(=O)CS(=O)(=O)NC(C)C)C(c2cccc([N+](=O)[O-])c2)C(C(=O)OCCO)=C(C)N1` (configuration not stated), 185 to 188 °C.

The molecule `CCOC(=O)c1cc2c(nc1C)C(CBr)CCCC2` (configuration not stated) registered a melting point of 50 to 51 °C. Molecule `CC(C)(C)C(=O)CC(C(=O)C(C)(C)C)n1cncn1` (configuration not stated) returned a melting point of 66 to 69 °C.

Molecule `CCOC(=O)CN1C(=O)C2=C(c3ccccc3)N(CC(=O)OCC)C(=O)C2=C1c1ccccc1` displayed a melting point of 204 to 208 °C. The same measure for `CC1CCc2c(N3CCC(NC(=O)OC(C)(C)C)C3)c(F)cc3c(=O)n(N)c(=O)n1c23` (configuration not stated): 98 to 100 °C; for `NC(=O)c1cn(Cc2ccccc2F)cn1`: 204 to 205 °C.

In turn, `O=C(O)c1cc(-c2ccc(OCc3ccccc3)cc2OCc2ccccc2)n[nH]1` displayed a melting point of 218 to 219 °C. Molecule `Cc1ccc(N2C(=O)C(Cl)=C(C(=O)c3ccc(C(C)C)cc3)C2c2ccc(OC(F)(F)F)cc2)nn1` (configuration not stated) showed a melting point of 293 °C. Turning to `COc1ccc(N2CCN(CCN3CC(C)(C)C3)C2=O)cc1Cl`, the melting point fell in the range of 93 to 95 °C. The same measure for `CC(C)(C)OC(=O)N[C@@H](Cc1ccccc1)[C@@H](O)C[C@@H](Cc1ccc(O)cc1)C(=O)N[C@H]1c2ccccc2C[C@H]1O`: 218 to 219 °C; for `N[C@@H](CSCC1CCN(C(=O)OCc2ccccc2)CC1)C(=O)O`: 187 to 190 °C. The result for `Cc1cc(C)nc(COCP(=O)(O)O)c1` reads 153 to 156 °C. As for `CC(C)c1c(CO)n(-c2ccc(F)cc2)c(=O)c2ccccc12`, the melting point was 157 to 158 °C.

As for `O=C(Nc1ccc(Oc2ccnc(NC3CCS(=O)(=O)C3)n2)c2ccccc12)c1cc(F)cc(N2CCOCC2)c1` (configuration not stated), the melting point lay within 150 to 151 °C.

The molecule `O=C(O)c1cn(Cc2ccccc2)c2nc(N3CCNCC3)ncc2c1=O` came in with a melting point of 250 to 253 °C. The result for `COc1cc2c(cc1OS(N)(=O)=O)CC(C)(C)N(C(=O)c1cc(OC)c(OC)c(OC)c1)C2C` (configuration not stated) reads 170 to 173 °C; that for `CCC(CC)c1ccc(C(F)(F)F)c2[nH]c(=O)n(C)c12`, 205 to 206 °C. The same measure for `CCOC(=O)c1cnc2ccc(CC)nc2c1O`: 262 to 264 °C; for `c1cn2ccnc2c(N2CCOCC2)n1`: 127 °C; for `C[C@@H]1O[C@](C#CC2CC2)(C(F)(F)F)c2c(ccc(F)c2F)NC1=O` (relative stereo): 219 to 220 °C. The same measure for `Cc1c(-c2ccc(O)cc2)n(Cc2ccc(/C=C/C(=O)N(C)C)cc2)c2ccc(O)cc12`: 278 to 280 °C; for `CCOC(=O)CCC(=O)c1ccc2c(c1)CCC2`: 51 to 52 °C; for `O=C1CCc2cc(Oc3ccc(F)cc3F)c([N+](=O)[O-])cc21`: 145 °C. `COc1ccc(C2CSc3ccccc3NC2=O)cc1Br` (configuration not stated): the melting point amounted to 200 °C. The same measure for `CC(=O)OC(C)c1ccc2cc(OCc3ccccc3)ccc2c1` (configuration not stated): 97 to 98 °C. For the molecule `Cn1cc(-c2ccc3c(ccn3-c3ccc(F)cc3)c2)cn1`, the melting point was 144 to 145 °C. `CCOC(=O)CC(=O)c1cc(F)c(S(=O)c2ccccc2)nc1Nc1ccc(F)cc1F` (configuration not stated) came in with a melting point of 105 to 106 °C. `COc1cc(N)c2nc(C)cc(C)c2c1OC` gave a melting point of 108 to 110 °C. The same measure for `O=C(NCCO)C(=O)NCCO`: 166 to 169 °C. The same measure for `CC(C)n1c(=O)nc(-c2ccc3c(c2)CCO3)c2cc3c(cc21)OCO3`: 206 to 209 °C.
